What was measured:
Format in all cases: cell-based
MEC (+APH) = test: MEC (+APH)
HCT116 Bcl/xl = test: IC50 assay by Western blot (APH-treated cells), HCT116 Bcl/xl; conditions: for IC50: Homo sapiens, HCT-116
Procedure: (§1) E. Treatment of Cells for IC50 Assay by Western Blot
(§2) The compound is stored as a 1 mM stock solution prepared in accordance with the Receipt of Compound SOP. The stock solution is diluted in cell media in two separate 1:10 dilution series.
(§3) 1. Arrange twelve 15-mL centrifuge tubes in a rack in two series and label them in accordance with Dilutions Series 1 and Dilution Series 2 shown in Table 1 and Table 2, respectively.
(§4) 2. Place 2.5 mL of prewarmed cell media in each of the […]. Place 2.25 mL of prewarmed cell media in the remaining tubes.
(§5) 3. Add 7.5 μL of 1 mM compound stock solution in the 3 μM tube. Mix well.
(§6) 4. Add 2.5 μL of 1 mM compound stock solution in the 1 μM tube. Mix well.
(§7) 5. For each series (separately), remove 250 μL from the leftmost tube and transfer to the next tube to the right. Repeat for each tube until the series is complete.
(§8) 6. Set aside the 1 μM tube, the 3 μM tube, and the 300 nM tube for discard.
(§9) 7. The cells to be treated will be in 6-well plates labeled by cell line. Remove the cells from the incubator and label the wells with the dosages to be administered.
(§10) 8. Arrange the dilution tubes in the rack in a manner that reflects the 6-well plate arrangement so as to avoid confusion when administering the dosage solutions to the appropriate wells.
(§11) 9. Aspirate the three wells in the top row of the first plate (labeled NT, APH+, and APH+) and replace with 2 mL fresh media (without drug compound).
(§12) 10. Aspirate the three wells in the bottom row of the first plate and replace each well with 2 mL of solution from the appropriate tube.
(§13) 11. Repeat step 10 for the next row of wells (top row second plate). and then for the final row of wells (bottom row second plate).
(§14) 12. Place both plates into the incubator for 30 minutes.
(§15) 13. After 30 minutes have elapsed, remove the plates from the incubator.
(§16) 14. Acquire stock solution of APH (5 mM) and add 2 μL of the APH stock solution to the center of each well except the well labeled NT.
(§17) 15. Swirl the plates carefully and gently to diffuse the APH throughout each well.
(§18) 16. Place the plates back in the incubator for 4 hours, at which point the cells will be harvested for analysis.
(§19) 17. Twenty minutes before harvesting (or 3 hours and 40 minutes after administration of APH), turn on a heat block suitable to heat Eppendorf tubes. Set the temperature to 95° C.
(§20) 18. Set up a number of Eppendorf tubes equal to the number of wells treated (i.e., twelve per two-plate drug administration), and label each tube with cell line, compound administered, dosage level, and date. Leave the tubes open.
(§21) 19. Add 200 mL DI water to a beaker.
(§22) 20. After 4 hours, remove treated plates from incubator.
(§23) 21. Aspirate media from all wells.
(§24) 22. Wash each well with 2 mL 1×PBS and aspirate.
(§25) 23. Sterilize vacuum line with 70% ethanol by spraying some into the nozzle while the vacuum is engaged. Shut off vacuum.
(§26) 24. Add Laemmli buffer to each well. For HCT116 Bcl/xl, OVCAR-3, and 22RV1 cells, add 300 μL per well; for OVCAR-8 and SKOV-3 cells, add 250 μL per well.
(§27) 25. Scrape the first well thoroughly. Place the scraper into the DI water between uses.
(§28) 26. Transfer the lysed cell debris mixture to the first tube carefully. The mixture will be viscous. Use a 1000-μL pipettor. Close the tube.
(§29) 27. Repeat steps 25 and 26 for each well.
(§30) 28. When all wells have been harvested, place all the tubes into the heat block. Place a weighted, heat-resistant object on top of the tubes to keep them closed.
(§31) 29. After 5 minutes, remove the tubes from the heat block and turn it off. Vortex each tube for 10 seconds. Be cautious of tubes popping open.
(§32) 30. Allow the tubes to come to room temperature and proceed to further analysis or store frozen at −20° C.

OVCAR-3 = test: IC50 assay by Western blot (APH-treated cells), OVCAR-3; conditions: OVCAR-3 cells; for IC50: Homo sapiens
Procedure: as §1, §2, §3, §4, §5, §6, §7, §8, §9, §10, §11, §12, §13, §14, §15, §16, §17, §18, §19, §20, §21, §22, §23, §24, §25, §26, §27, §28, §29, §30, §31, §32

OVCAR-8 = test: IC50 assay by Western blot (APH-treated cells), OVCAR-8; conditions: OVCAR-8 cells; for IC50: Homo sapiens
Procedure: as §1, §2, §3, §4, §5, §6, §7, §8, §9, §10, §11, §12, §13, §14, §15, §16, §17, §18, §19, §20, §21, §22, §23, §24, §25, §26, §27, §28, §29, §30, §31, §32

SKOV-3 = test: IC50 assay by Western blot (APH-treated cells), SKOV-3; conditions: SKOV-3 cells; for IC50: Homo sapiens, SK-OV-3
Procedure: as §1, §2, §3, §4, §5, §6, §7, §8, §9, §10, §11, §12, §13, §14, §15, §16, §17, §18, §19, §20, §21, §22, §23, §24, §25, §26, §27, §28, §29, §30, §31, §32

22RV1 = test: IC50 assay by Western blot (APH-treated cells), 22RV1; conditions: 22RV1 cells; for IC50: Homo sapiens
Procedure: as §1, §2, §3, §4, §5, §6, §7, §8, §9, §10, §11, §12, §13, §14, §15, §16, §17, §18, §19, §20, §21, §22, §23, §24, §25, §26, §27, §28, §29, §30, §31, §32

[1] = test system: HCT Bcl/xl, OVCAR-3, OVCAR-8, SKOV-3, 22RV1 cell lines; test: Ave. IC50 across cell lines; conditions: average across cell lines

IC50 (HCT116 Bcl/xl) [nM] | IC50 (OVCAR-3) [nM] | IC50 (OVCAR-8) [nM] | IC50 (SKOV-3) [nM] | IC50 (22RV1) [nM] | IC50 [1] [nM] | Structure (SMILES) | minimal effective concentration (MEC (+APH)) [µM] | PALD (Percent Activity at Lowest Dose tested) HCT Bcl/xl (HCT116 Bcl/xl) | PALD (Percent Activity at Lowest Dose tested) OVCAR-3 (OVCAR-3) | PALD (Percent Activity at Lowest Dose tested) OVCAR-8 (OVCAR-8) | PALD (Percent Activity at Lowest Dose tested) SKOV-3 (SKOV-3) | PALD (Percent Activity at Lowest Dose tested) 22RV1 (22RV1)
2.68 | 4.09 | 2.16 | 2.85 | 4.69 | 3.29 | CNCc1cccc2c1OCCCCCC[C@](C)(O)CC(C)(C)S(=O)(=O)c1ccc(cc1)-c1cnc(N)c(n1)C(=O)N2 (single isomer, unassigned) [Compound A-1] | 2e-05 | (110%) | (116%) | (91%) | (81%) | (121%)
2.29 | 0.753 | 2.95 | 2.71 | 3.44 | 2.42 | CNCc1cccc2c1OCCCCCC[C@@](C)(O)CC(C)(C)S(=O)(=O)c1ccc(cc1)-c1cnc(N)c(n1)C(=O)N2 (single isomer, unassigned) [Compound A-2] | 2e-05 | (91%) | (101%) | (82%) | (110%) | (107%)
4.61 | 7.43 | 7.06 | 1.57 | 4.95 | 5.12 | CNCc1cccc2c1OCCCCCC[C@](C)(O)CC1(CC1)S(=O)(=O)c1ccc(cc1)-c1cnc(N)c(n1)C(=O)N2 (single isomer, unassigned) [Compound B-1] | 4e-05 | (93%) | (105%) | (132%) | (106%) | (98%)
3 | 3.12 | 2.62 | 0.97 | 1.89 | 2.32 | CNCc1cccc2c1OCCCCCC[C@@](C)(O)CC1(CC1)S(=O)(=O)c1ccc(cc1)-c1cnc(N)c(n1)C(=O)N2 (single isomer, unassigned) [Compound B-2] | 2e-05 | (81%) | (94%) | (115%) | (115%) | (101%)
5.41 | 11.5 | 2.47 | 3.2 | 2.03 | 4.92 | CC1(C)C[C@](C)(O)CCCCCCOc2c(CN)cccc2NC(=O)c2nc(cnc2N)-c2ccc(cc2)S1(=O)=O (single isomer, unassigned) [Compound C-2] | 1e-05 | (71%) | (95%) | (100%) | (95%) | (92%)
57.1 | 91.8 | 86.6 | 107 | 275 | 123 | C[C@@H]1COCCN1c1cc(C2([S@](C)(=N)=O)CC2)nc(-c2cc[nH]c3nccc2-3)n1 [AZD 6738, reference compound] | 0.0003 |  | (190%) | (116%) | (105%) | (165%)
62.1 | 11.5 | 84.6 | 9.5 | 84.9 | 50 | CNCc1ccc(-c2cc(-c3nc(-c4ccc(S(=O)(=O)C(C)C)cc4)cnc3N)on2)cc1 [VE822, reference compound] | 0.0003 | (105%) | (79%) | (89%) | (55%) | (86%)
